From PMC10810651, “Discovery of novel and potent CDK8 inhibitors for the treatment of acute myeloid leukaemia” (Journal of Enzyme Inhibition and Medicinal Chemistry, 2024)

What was measured:
[1] = target: CYP 2D6 (Homo sapiens, UniProt P10635); experiment: CYP inhibition activity, 2D6; type: in vitro ADME
Text: Table 7. CYP inhibition activity. | column: IC50 (μM) / 2D6

[2] = target: CDK2 (Homo sapiens, UniProt P24941); experiment: CDKs selectivity, CDK2; type: biochemical
Text: (§1) CDK7 and CDK9 with the same transcription function and CDK2 and CDK6 were selected to evaluate the selectivity of compound 12.

[3] = system: CYP3A4/5; experiment: CYP inhibition activity, 3A4/5 (M); type: in vitro ADME; conditions: human; CYP 3A4/5 (M)
Text: Table 7. CYP inhibition activity. | column: IC50 (μM) / 3A4/5 (M)

[4] = system: SW480; experiment: Antiproliferative CCK-8 assay, SW480; type: cell-based; conditions: Homo sapiens; SW480, CCK-8 assay, means ± SD; read-out: GC50 (the source's name)
Text: (§2) Compounds12, 13 and 30 were selected for further cell activity assessments based on the enzymatic activity assessment results. molm-13 and MV4-11(acute myeloid lineage leukaemia cells), MGC-803 (gastric cancer cell), MDA-MB-231(breast cancer cell), A375 (melanoma cell), A549 (lung cancer cell), HCT-116, SW-480 and HT-29 (colorectal cancer cells) were selected to evaluate antitumor activity in vitro, GES-1 (gastric mucosal epithelial cell) was selected to evaluate toxicity in vitro.
(§3) CO2 atmosphere incubator for 24 h. Then, medium with compound at the concentrations of 100, 20, 4, 0.8, 0.016 μM was added into each well for another 48 h and incubated with CCK-8 (10 μL) for 2 h at 37 °C. The absorbance value at 450 nm was measured by the microplate reader (PerkinElmer Envision). […]

[5] = target: CDK8 (Homo sapiens, UniProt P49336); experiment: Biotin-pulldown assay; type: binding; set-up: endogenous in cells; host or cells: HCT-116; conditions: HCT-116 or CDK8-transfected HEK293T cells; 2 μM biotinylated compound; 1, 2, 4 μM
Procedure: In previous study, a biotinylated compound with favourable CDK8 inhibition activity was designed and synthesized. Here, the pulldown assay was performed to determine compound 12 could bind CDK8. HCT-116 cells or HEK293T cells transfected with CDK8 plasmid labelled were treated with 2 μM biotinylated compound and compounds 12 with different concentrations of 1 μM, 2 μM, 4 μM separately.
CO2 atmosphere incubator for 24 h. Then, medium with compound at the concentrations of 100, 20, 4, 0.8, 0.016 μM was added into each well for another 48 h and incubated with CCK-8 (10 μL) for 2 h at 37 °C. The absorbance value at 450 nm was measured by the microplate reader (PerkinElmer Envision).
The kinase inhibition was detected by ADP-Glo™ Kinase Assay (Promega) using a black 384-well plate. The active CDK8 kinase was diluted in mixture (5 ng enzyme, 0.5 μg substrate, 50 μM DTT, 1 μL reaction buffer and added ddH2O to 3 μL each well) and the final ATP concentrations of was 50 μM. […] The data was collected by the microplate reader. […]
were broken by ultr asonic treatment and centrifuged at 12000 rpm for 20 min. The supernatant was analyzed by western blot. […]
After co-treated with 2 μM biotinylated compound and compound 12 for 12 h, HCT-116 cells were lysed with NP-40 containing PMSF and centrifuged at 14000 r for 30 min at 4 °C. […] The samples were analyzed by western blot.

[6] = target: CDK7 (Homo sapiens, UniProt P50613); experiment: CDKs selectivity, CDK7; type: biochemical
Text: as §1

[7] = system: C57BL/6 mice; experiment: Acute toxicity study; type: in vivo; conditions: 1000 mg/kg by gastric tube
Procedure: The safety of compound 12 in vivo was evaluated through an acute toxicity study on C57BL/6 mice. The compound 12 was administered by gastric tube at a dose of 1000 mg/kg. The normal group was given the same amount of normal saline. […] Finally, the mice were anaesthetised and sacrificed, and the main organs such as heart, liver, spleen, lung and kidney were detected through pathological section.

[8] = system: STAT1 Tyr701; experiment: Phosphorylation of STAT1 Tyr701, western blot; type: cell-based; conditions: HCT-116 cells, 1, 2, 4 μM, 12 h
Procedure: It has been reported that CDK8 could specifically target the transactivation domain of STAT1 at Ser727 phosphorylation. HCT-116 cells were treated with compounds 12 with different concentrations of 1 μM, 2 μM, 4 μM separately to verify compound 12 could inhibit the phosphorylation of STAT1 Ser727. […] It’s reported that CDK8 was also involved in S726 phosphorylation of STAT5 in AML cells.
1.7 The effect of compound on phosphorylation of STAT1 S727
HCT-116 cells were seeded into 60 mm cultural dishes at a density of 1.5×10^6 cells per dishes. After incubated for 12 h, cells were treated with DMSO or 10ng/mL IFN-γ.1 hour later, cells were treated with or without different concentrations of compound for 12 h. Cells were lysed using RIPA containing PMSF and phosphatase inhibitor cocktail A. Then cell samples were treated by western blot. Levels of total STAT1, phosphorylated STAT1 S727, Y701 and GAPDH were analyzed.
1.8 The effect of compound on phosphorylation of STAT5 S726
HL-60 cells were seeded into 60 mm cultural dishes at a density of 2×10^6 cells per dishes. […]
Levels of total STAT5, phosphorylated STAT5 S726 and GAPDH were analyzed.
The results were expressed as the means ± SEMs (SPSS software), and the differences between groups were evaluated using Turkey’s method (GraphPad Software). […]

[9] = system: GES-1; experiment: In vitro toxicity CCK-8 assay, GES-1; type: cell-based; conditions: Homo sapiens, GES1, GES-1 gastric mucosal epithelial cell, read-out: GC50 (the source's name)
Text: as §2, §3

[10] = system: HT-29; experiment: Antiproliferative CCK-8 assay, HT-29; type: cell-based; conditions: Homo sapiens; HT-29, CCK-8 assay, means ± SD; read-out: GC50 (the source's name)
Text: as §2, §3

Chain of CDK7 (P50613 whole entry): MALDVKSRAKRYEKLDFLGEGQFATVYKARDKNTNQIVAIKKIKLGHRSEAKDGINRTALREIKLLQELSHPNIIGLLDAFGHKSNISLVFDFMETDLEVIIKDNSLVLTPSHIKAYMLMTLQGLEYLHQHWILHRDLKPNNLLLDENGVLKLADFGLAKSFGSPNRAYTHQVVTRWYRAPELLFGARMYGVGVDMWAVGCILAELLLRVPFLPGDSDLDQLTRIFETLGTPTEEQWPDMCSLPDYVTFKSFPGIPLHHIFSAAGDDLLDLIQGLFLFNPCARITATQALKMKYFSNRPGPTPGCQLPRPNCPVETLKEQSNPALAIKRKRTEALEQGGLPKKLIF
Chain of CDK7 (P51946 whole entry partner): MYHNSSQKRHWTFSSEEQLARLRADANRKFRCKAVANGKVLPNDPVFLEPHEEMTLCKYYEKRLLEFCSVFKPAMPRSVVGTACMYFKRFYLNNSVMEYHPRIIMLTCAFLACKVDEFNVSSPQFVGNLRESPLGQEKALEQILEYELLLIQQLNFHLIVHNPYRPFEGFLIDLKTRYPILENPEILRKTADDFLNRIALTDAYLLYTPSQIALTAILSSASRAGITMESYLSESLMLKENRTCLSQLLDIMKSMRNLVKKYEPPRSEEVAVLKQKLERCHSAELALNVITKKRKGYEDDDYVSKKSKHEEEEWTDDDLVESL
Chain of CDK7 (P51948 whole entry partner): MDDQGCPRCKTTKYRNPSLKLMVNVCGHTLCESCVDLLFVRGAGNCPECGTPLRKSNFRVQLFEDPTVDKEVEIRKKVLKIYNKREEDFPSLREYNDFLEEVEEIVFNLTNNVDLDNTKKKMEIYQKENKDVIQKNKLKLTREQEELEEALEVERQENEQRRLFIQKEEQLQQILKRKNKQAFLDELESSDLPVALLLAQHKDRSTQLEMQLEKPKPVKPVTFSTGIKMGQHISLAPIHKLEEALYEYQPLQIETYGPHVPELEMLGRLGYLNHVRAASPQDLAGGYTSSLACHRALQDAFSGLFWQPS
Chain of CYP 2D6 (P10635 whole entry): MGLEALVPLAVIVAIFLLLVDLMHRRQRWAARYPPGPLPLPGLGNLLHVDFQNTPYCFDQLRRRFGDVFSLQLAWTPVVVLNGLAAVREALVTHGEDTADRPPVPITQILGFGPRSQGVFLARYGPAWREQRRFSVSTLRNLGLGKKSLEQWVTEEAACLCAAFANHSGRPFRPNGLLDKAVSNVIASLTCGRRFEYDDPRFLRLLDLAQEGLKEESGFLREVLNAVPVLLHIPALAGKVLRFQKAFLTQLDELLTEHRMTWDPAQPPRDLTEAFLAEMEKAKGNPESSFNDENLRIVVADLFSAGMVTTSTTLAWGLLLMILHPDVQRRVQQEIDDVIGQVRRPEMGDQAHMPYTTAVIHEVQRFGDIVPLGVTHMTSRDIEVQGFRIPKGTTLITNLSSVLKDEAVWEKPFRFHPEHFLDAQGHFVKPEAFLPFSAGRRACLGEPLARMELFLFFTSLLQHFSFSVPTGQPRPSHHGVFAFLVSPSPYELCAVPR
Chain of CDK8 (P49336 whole entry): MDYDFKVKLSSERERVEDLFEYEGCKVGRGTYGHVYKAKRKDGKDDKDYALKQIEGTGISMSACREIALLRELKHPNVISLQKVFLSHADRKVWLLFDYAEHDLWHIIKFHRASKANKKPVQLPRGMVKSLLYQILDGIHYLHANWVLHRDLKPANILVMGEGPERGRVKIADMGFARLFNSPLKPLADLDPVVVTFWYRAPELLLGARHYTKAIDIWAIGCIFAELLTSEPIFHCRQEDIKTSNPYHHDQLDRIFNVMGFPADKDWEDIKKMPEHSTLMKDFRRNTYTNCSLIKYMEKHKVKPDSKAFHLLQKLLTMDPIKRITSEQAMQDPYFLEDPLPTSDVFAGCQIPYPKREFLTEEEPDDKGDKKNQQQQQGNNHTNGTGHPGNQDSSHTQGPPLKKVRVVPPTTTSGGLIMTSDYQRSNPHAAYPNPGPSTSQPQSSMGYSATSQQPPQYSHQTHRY

Compound: NC(=O)c1cccc(-c2cnc3[nH]cc(-c4ccoc4)c3c2)c1 [Compound 12, 3-(3-(furan-3-yl)-1H-pyrrolo[2,3-b]pyridin-5-yl)benzamide]
- IC50 [1]: > 50 µM
- IC50 [2]: > 1000 nM
- IC50 [3]: > 5e-05 M
- IC50 [4]: 6.05 ± 2.26 µM
- Competition with biotinylated compound for binding to CDK8 [5]: could inhibit the binding of biotinylated compound to CDK8
- IC50 [6]: 301 ± 27.8 nM
- Physiological phenomena such as anorexia, drowsiness, seizures and hyperactivity ([7]; 7 days): no obvious change
- Pathological section of heart, liver, spleen, lung and kidney (HE staining) ([7]; after 7 days): no diseased tissue
- Phosphorylation of STAT1 Tyr701 [8]: not inhibited
- IC50 [9]: 25.7 ± 4.97 µM
- IC50 [10]: 8.26 ± 0.65 µM
